Legend:
HCV NS3/4A (wild-type) = target: T1, HCV NS3/4A (wild-type) (Hepatitis C virus genotype 1b, UniProt O92972); test: NS3/4A activity assay with FRET peptide substrate, wild-type enzyme; format: biochemical, HCV genotype 1b, strain HC-J4; conditions: wild-type NS3/4A 10 nM, Ac-DE-D(Edans)-EE-Abu-ψ-[COO]-AS-K(Dabsyl)-NH2 10 µM, 30 min pre-incubation; read-out: NS3/4A IC50
T1 construct: The NS3/4A construct represented the individual NS3 proteinase domain N-terminally fused with an NS4A co-factor; 6xHis; purchased AnaSpec (Fremont, CA)
T1 sequence (O92972 1027-1208): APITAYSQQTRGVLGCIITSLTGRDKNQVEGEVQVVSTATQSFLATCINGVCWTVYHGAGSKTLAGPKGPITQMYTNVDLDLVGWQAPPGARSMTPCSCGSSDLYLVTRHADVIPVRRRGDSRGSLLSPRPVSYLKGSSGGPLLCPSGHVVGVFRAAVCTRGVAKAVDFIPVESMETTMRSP
From the text: (§1) Reagents were purchased from Sigma unless indicated otherwise. The FRET substrate Ac-DE-D(Edans)-EE-Abu-ψ-[COO]-AS-K(Dabsyl)-NH2, purified recombinant wild-type NS3/4A from HCV genotype 1b, strain HC-J4, and the mutants with the V36M, R155K, A156T, D168A and V170A resistance mutations were from AnaSpec (Fremont, CA). The NS3/4A construct represented the individual NS3 proteinase domain N-terminally fused with an NS4A co-factor and tagged with a 6xHis tag. NS3/4A was in active form and the pre-activation by pep-4A or pep4AK was not necessary. Pyroglutamic acid-Arg-Thr-Lys-Arg-7-amino-4-methylcoumarin was from Peptides International (Louisville, KY). West Nile virus NS2B-NS3 proteinase (strain NY99) was expressed, purified and refolded to restore its functional activity as described earlier. The pET15b-Den2-CF40-Gly-NS3pro 185 plasmid encoding the Dengue virus type 2 NS2B-NS3 protease was a kind gift of Dr. Subhash Vasudevan (Program in Emerging Infectious Diseases, DUKE-NUS Graduate Medical School, Singapore). DV NS2B-NS3 proteinase was expressed purified and refolded to restore its functional activity as described previously, [70]. The expression of the soluble C-terminally truncated human furin construct in Sf9 insect cells (an ovarian cell line from fall armyworm Spodoptera frugiperda; Invitrogen, Carlsbad, CA) infected with the recombinant baculovirus and purification of soluble furin from the medium were described earlier. Original human hepatocarcinoma Huh7 cells were obtained from ATCC (Manassas, VA).
The NS3/4A activity assay was performed at 37°C in triplicate in wells of a 96-well plate in 0.2 ml 50 mM HEPES, pH 7.5, containing 100 mM NaCl, 10 mM DTT, 20% glycerol, the Ac-DE-D(Edans)-EE-Abu-ψ-[COO]-AS-K(Dabsyl)-NH2 substrate (10 µM) and the NS3/4A enzyme (10 nM). Reaction velocity was monitored continuously at λex = 355 nm and λem = 500 nm for 10 min using a Spectramax Gemini EM fluorescence spectrophotometer (Molecular Devices, Sunnyvale, CA) and the initial rate of reaction v was recorded for each reaction. There was no significant additional absorption by compounds 1–8 we identified, which might interfere with NS3/4A assay. Compound stock solutions (10 mM) were made in 100% DMSO. Stocks were then diluted using the assay buffer. As a result, the final DMSO concentration was always below 1% in the assay reactions.
(§2) To measure the inhibitory potency of the compounds, their increasing concentrations were pre-incubated with the individual proteinases in the corresponding buffer for 30 min at ambient temperature. At least, 7–9 different concentrations were used for each inhibitor. The residual activity of the enzymes was then measured as above. The IC50 values of the inhibitory compounds were calculated by determining the concentrations of the compounds needed to inhibit 50% of the enzyme activity against the peptide substrate. GraphPad Prism was used as fitting software.

furin = target: T2, furin (Homo sapiens, UniProt P09958); test: Furin activity assay (cross-reactivity); format: biochemical; conditions: pyroglutamic acid-Arg-Thr-Lys-Arg-7-amino-4-methylcoumarin substrate
T2 construct: soluble C-terminally truncated human furin construct in Sf9 insect cells; made in house; host or cells: Sf9 insect cells (baculovirus)
T2 sequence (P09958 108-715 limits assumed): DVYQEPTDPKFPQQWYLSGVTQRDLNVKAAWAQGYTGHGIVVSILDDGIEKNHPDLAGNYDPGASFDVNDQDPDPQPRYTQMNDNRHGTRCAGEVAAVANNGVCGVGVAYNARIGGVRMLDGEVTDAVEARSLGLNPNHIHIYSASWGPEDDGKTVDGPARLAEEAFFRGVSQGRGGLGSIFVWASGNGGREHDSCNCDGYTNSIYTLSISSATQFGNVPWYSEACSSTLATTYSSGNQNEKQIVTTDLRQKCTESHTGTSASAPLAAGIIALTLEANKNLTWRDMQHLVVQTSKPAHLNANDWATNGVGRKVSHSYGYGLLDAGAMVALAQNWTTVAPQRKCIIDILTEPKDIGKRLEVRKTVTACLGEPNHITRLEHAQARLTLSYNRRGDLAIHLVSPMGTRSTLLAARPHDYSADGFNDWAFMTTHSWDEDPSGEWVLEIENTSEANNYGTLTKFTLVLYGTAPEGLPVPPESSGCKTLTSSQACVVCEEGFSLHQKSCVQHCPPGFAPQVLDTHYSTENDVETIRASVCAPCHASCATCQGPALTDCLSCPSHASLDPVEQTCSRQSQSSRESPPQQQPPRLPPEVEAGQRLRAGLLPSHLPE
From the text: as §1
The activity of furin and both WNV and DV2 NS2B-NS3 proteinases (10 nM each) was measured in triplicate in 0.2 ml 20 mM Tris-HCl buffer, pH 8.0, containing 20% glycerol and 0.005% Brij 35 (for furin – 100 mM HEPES, pH 7.5, containing 1 mM CaCl2, 1 mM β-mercaptoethanol and 0.005% Brij 35) and pyroglutamic acid-Arg-Thr-Lys-Arg-7-amino-4-methylcoumarin (10 µM) as a substrate (λex = 360 nm; λem = 465 nm) as described earlier.
as §2

## Clc1ccc(Nc2nc(SCc3ccccc3)nc3n[nH]c(Cc4nc5ccccc5s4)c23)cc1 [Compound 5]
HCV NS3/4A (wild-type)
  IC50: 380 nM
furin
  IC50: > 100 µM

## COc1cc(C2C(C(=O)Nc3ccc(Cl)c(Cl)c3)=C(C)NC(C)=C2C(=O)Nc2ccc(Cl)c(Cl)c2)ccc1O [Compound 8]
furin
  IC50: 27 µM

## Clc1ccc(OCc2nn3c(CCc4nnc5sc(COc6ccc(Cl)cc6)nn45)nnc3s2)cc1 [Compound 2]
HCV NS3/4A (wild-type)
  IC50: 300 nM
furin
  IC50: > 100 µM

## Oc1ccccc1-c1nnc2sc3c(Cl)c4nn5c(-c6ccccc6O)nnc5sc4c(Cl)c3nn12 [Compound 4]
furin
  IC50: 12.8 µM

## S=c1[nH]nc(Nc2nc(SCc3ccccc3)nc3n[nH]c(Cc4nn[nH]n4)c23)s1 [Compound 6]
HCV NS3/4A (wild-type)
  IC50: 950 nM
furin
  IC50: 66.8 µM

## O=C(Nc1ccccc1)c1cc(S(=O)(=O)Nc2nc3ncccc3[nH]2)c(SSc2cc(Cl)c(C(=O)Nc3ccccc3)cc2S(=O)(=O)Nc2nc3ncccc3[nH]2)cc1Cl [Compound 1]
HCV NS3/4A (wild-type)
  IC50: 183 nM
furin
  IC50: > 100 µM

## Cc1n[nH]c(=S)n1Nc1nc(SCc2ccccc2)nc2n[nH]c(Cc3nn[nH]n3)c12 [Compound 3]
HCV NS3/4A (wild-type)
  IC50: 360 nM
furin
  IC50: > 100 µM

## S=c1[nH]n2c(COc3cc(Cl)c(OCc4nnc5sc(=S)[nH]n45)cc3Cl)nnc2s1 [Compound 7]
furin
  IC50: > 100 µM

Reference: paper PMC3388044, “Probing of Exosites Leads to Novel Inhibitor Scaffolds of HCV NS3/4A Proteinase” (PLoS ONE, 2012)
